Our source for the EC50 values is patent publication US20240294508A1, “RIP1 MODULATORS INCLUDING AZETIDINE CYCLIC UREAS, PREPARATIONS, AND USES THEREOF” (SIRONAX LTD., priority 2021, published 2024).

The EC50 is the concentration needed to bring the measured effect to its halfway point.

This assay concerns HT-29 cells. The experiment in a line: HT29 cells 0FBS assay in vitro: TNF-α/SMAC mimetic/zVAD-FMK induced necroptosis, CellTiter-Glo cell viability (RIP1 inhibitory activity). Format: cell-based. Conditions: Homo sapiens, FBS free medium, TNF-α (10 ng/ml) + SMAC mimetic (6 uM) + zVAD-FMK (10 μM), 20 hours, geometric mean EC50. The text has this:
Protocol for HT29 Cells 0FBS Assay In Vitro
• Cell line: HT-29 (ATCC® HTB-38™) • Culture medium: McCOY's 5A, Gibco, Cat No. 16600-082 • FBS, Gibco, Cat No. 10099-141C • Trypsin: Gibco, Cat No. 25200-056 • DMSO: Sigma, Cat No. 67-68-5, 1L • Assay plate: Corning #3903 • Compound dilution plate: Corning #3357 • Inducers: TNFα, GenScript, Cat No. Z01001-50, • SmacM, Cat. No., HY-15989, MedChemExpress (MCE) • Z_VAD FMK, TargetMol, T6013 • Cell Titer-Glo® Luminescent Cell Viability Assay Kit: Promega, Cat No. G7573 • EnVision: PerkinElmer, 2105-0010
2. Cell Seeding of HT-29 Cells
1) HT-29 cells were checked every day to make sure they are healthy and growing as expected. They were split sub-culturing when were approximately 80% confluent.
2) First pre-warm the culture medium of McCOY's 5A medium (Gibco, Cat No. 16600-082) with 10% FBS (Gibco, Cat No. 10099-141C) in 37° C. water bath for at least 30 min.
3) Growing cells to desired level of confluency 80% in a T75 flask, aspirate the medium, and wash with warm PBS two times.
4) Add 2-3 ml fresh warm trypsin (Gibco, Cat No. 25200-056) solution. Transfer the flask to a 37° C. incubator.
5) After 5 minutes, tap the side of the flask, and examine the flask under a microscope for lifting. If necessary, return the cells to the incubator for an additional 5-10 minutes, with occasional tapping, until lifting is complete.
6) Quickly neutralize the trypsin reaction by adding 6-9 ml cell culture medium, then transfer the cells to sterile 15 ml conical tubes. Pellet the cells by centrifugation at 300×g for 7 minutes, then decant the supernatant.
7) Resuspend the cells in fresh cell culture medium. Do cell counting with hemocytometer.
8) Seed 100 μl of 5,000 cells into each well of the sterile 96-well cell culture plate (Corning 3903) and culture overnight at 37° C. with 5% CO2.
3. Compounds Titration and Treatment of HT-29 Cells
1) All batches of compounds (CPDs0 (e.g., compound 1-169) were dissolved in DMSO (Dimethyl sulfoxide) as 20 mM stock solution.
2) Take 3 ul 20 mM stock solution of CPDs to […] DMSO and mix well, continue the titration ratio of 1:3 (20 ul CPDs+40 ul DMSO), e.g., to give solutions of CPDS at 6.6 mM, 2.2 mM, etc., till the 10 points end.
3) Take out assay plates with HT-29 cells from incubator, remove all culture medium then wash 1 time with 1×PBS, and change fresh McCOY's 5A medium of FBS free with a cocktail of TNF-α (10 ng/ml), the SMAC mimetic (6 uM) and zVAD-FMK (10 μM) to stimulate the HT-29 cells to increase pRIPK1 levels and necroptosis.
4) Add 0.5 μL of the diluted compound to the corresponding 96-well assay plates.
5) Incubate the assay plates for 20 hours at 37° C. with 5% CO2.
4. Performing Cell Viability Detection of HT-29 Cells after Treated with Compounds
1) The CellTiter-Glo® Luminescent Cell Viability Assay was employed to detect the ATP levels of viable HT-29 cells.
2) Equilibrate the CellTiter-Glo® buffer and the lyophilized substrate to room temperature prior to use.
3) Resuspend the CellTiter-Glo® substrate with CellTiter-Glo® buffer, mix by gently vortexing to obtain a homogeneous solution.
4) Pipette 20 μl the enzyme/substrate mixture by multi-channel pipette into the 96-well assay plates from step 5) under the Compounds titration and treatment stage.
5) Place the plates on an orbital shaker and mix the contents for 3 minutes to induce cell lysis.
6) Then allow the plates to incubate at room temperature for 10 minutes to stabilize luminescent signal.
7) Read and record luminescence signal with EnVision.
8) The geometric mean EC50 of the compounds were calculated from 10 points response dose with duplicate. In Table 2, activity is provided as follows: +++=0.1 nM≤EC50<100 nM; ++=100 nM≤EC5 1000 nM; […].
On the technique in general: ATP-based viability assays read luminescence as a measure of living cells.
Turning to `Cc1n[nH]c(C)c1-c1cc(OC2CN(C(=O)N3N=CC[C@H]3c3cc(F)cc(C#N)c3)C2)c(F)cn1` [Compound 19, (S)-3-(1-(3-((2-(3,5-dimethyl-1H-pyrazol-4-yl)-5-fluoropyridin-4-yl)oxy)azetidine-1-carbonyl)-4,5-dihydro-1H-pyrazol-5-yl)-5-fluorobenzonitrile], the EC50 was 0.1 to 100 nM.

Regarding `Cc1nn(-c2cc(OC3CN(C(=O)N4N=CC[C@H]4c4cc(F)cc(F)c4F)C3)c(F)cn2)c(C)c1C(=O)O` [Compound 104, (S)-1-(5-fluoro-4-((1-(5-(2,3,5-trifluorophenyl)-4,5-dihydro-1H-pyrazole-1-carbonyl)azetidin-3-yl)oxy)pyridin-2-yl)-3,5-dimethyl-1H-pyrazole-4-carboxylic acid], the EC50 lay in the range of 0.1 to 100 nM.

Regarding `Cn1ncc(Cl)c1-c1cc(OC2CN(C(=O)N3N=CC[C@H]3c3cncc(C#N)c3)C2)c(F)cn1` [Compound 44], the EC50 lay within 0.1 to 100 nM.

Take `Cn1ncc(C#N)c1-c1ccc(F)c(OC2CN(C(=O)N3N=CC[C@H]3c3cncc(F)c3)C2)n1` [Compound 34, (S)-5-(5-fluoro-6-((1-(5-(5-fluoropyridin-3-yl)-4,5-dihydro-1H-pyrazole-1-carbonyl)azetidin-3-yl)oxy)pyridin-2-yl)-1-methyl-1H-pyrazole-4-carbonitrile]: the EC50 fell in the range of 0.1 to 100 nM.

`CCn1nccc1-c1cc(OC2CN(C(=O)N3N=CC[C@H]3c3cncc(F)c3)C2)c(F)cn1` [Compound 28, (S)-(3-((2-(1-ethyl-1H-pyrazol-5-yl)-5-fluoropyridin-4-yl)oxy)azetidin-1-yl)(5-(5-fluoropyridin-3-yl)-4,5-dihydro-1H-pyrazol-1-yl)methanone]: the EC50 fell in the range of 0.1 to 100 nM.

Take `Cc1nn(-c2cc(OC3CN(C(=O)N4N=CC[C@@H]4c4cc(F)cc(F)c4F)C3)c(F)cn2)c(C)c1C(=O)O` [Compound 105, (R)-1-(5-fluoro-4-((1-(5-(2,3,5-trifluorophenyl)-4,5-dihydro-1H-pyrazole-1-carbonyl)azetidin-3-yl)oxy)pyridin-2-yl)-3,5-dimethyl-1H-pyrazole-4-carboxylic acid]: the EC50 lay in the range of 1000 to 10000 nM.

With `Cc1cnn(C)c1-c1nc(OC2CN(C(=O)N3N=CCC3c3cc(F)cc(F)c3)C2)c(F)cc1F` (stereo not shown) [Compound 158, (5-(3,5-difluorophenyl)-4,5-dihydro-1H-pyrazol-1-yl)(3-((6-(1,4-dimethyl-1H-pyrazol-5-yl)-3,5-difluoropyridin-2-yl)oxy)azetidin-1-yl)methanone], the EC50 was in the range of 0.1 to 100 nM.

On to `Cc1noc(C)c1-c1cc(OC2CN(C(=O)N3N=CC[C@H]3c3cc(F)cc(C#N)c3)C2)c(F)cn1` [Compound 89, (S)-3-(1-(3-((2-(3,5-dimethylisoxazol-4-yl)-5-fluoropyridin-4-yl)oxy)azetidine-1-carbonyl)-4,5-dihydro-1H-pyrazol-5-yl)-5-fluorobenzonitrile], for which the EC50 is 0.1 to 100 nM.

Regarding `Cc1nn(-c2cc(OC3CN(C(=O)N4N=CC[C@H]4c4cc(F)cc(Cl)c4)C3)c(F)cn2)c(C)c1C(=O)O` [Compound 140, (S)-1-(4-((1-(5-(3-chloro-5-fluorophenyl)-4,5-dihydro-1H-pyrazole-1-carbonyl)azetidin-3-yl)oxy)-5-fluoropyridin-2-yl)-3,5-dimethyl-1H-pyrazole-4-carboxylic acid], the EC50 lay within 0.1 to 100 nM.

As to `O=C(N1CC(Oc2cc(-c3ccc[nH]c3=O)ncc2F)C1)N1N=CC[C@H]1c1cc(F)cc(F)c1` [Compound 167, (S)-4-((1-(5-(3,5-difluorophenyl)-4,5-dihydro-1H-pyrazole-1-carbonyl)azetidin-3-yl)oxy)-5-fluoro-[2,3′-bipyridin]-2′(1′H)-one], the EC50 is 0.1 to 100 nM.

For the molecule `Cn1ncc(Cl)c1-c1cc(OC2CN(C(=O)N3N=CC[C@H]3c3cc(F)cc(C#N)c3)C2)c(F)cn1` [Compound 6, (S)-3-(1-(3-((2-(4-chloro-1-methyl-1H-pyrazol-5-yl)-5-fluoropyridin-4-yl)oxy)azetidine-1-carbonyl)-4,5-dihydro-1H-pyrazol-5-yl)-5-fluorobenzonitrile], the EC50 was in the range of 0.1 to 100 nM.

In the case of `Cc1cnc(C2CC=NN2C(=O)N2CC(Oc3nc(-c4c(C)cnn4C)c(F)cc3F)C2)s1` (stereo not shown) [Compound 129, (3-((6-(1,4-dimethyl-1H-pyrazol-5-yl)-3,5-difluoropyridin-2-yl)oxy)azetidin-1-yl)(5-(5-methylthiazol-2-yl)-4,5-dihydro-1H-pyrazol-1-yl)methanone], the EC50 lay in the range of 0.1 to 100 nM.

As to `Cc1nn(-c2cc(OC3CN(C(=O)N4N=CCC4c4cc(F)cc(Cl)c4)C3)c(F)cn2)c(C)c1C(N)=O` (stereo not shown) [Compound 117, 1-(4-((1-(5-(3-chloro-5-fluorophenyl)-4,5-dihydro-1H-pyrazole-1-carbonyl)azetidin-3-yl)oxy)-5-fluoropyridin-2-yl)-3,5-dimethyl-1H-pyrazole-4-carboxamide], the EC50 fell in the range of 0.1 to 100 nM.

As for `Cc1noc(C)c1-c1ncc(F)c(OC2CN(C(=O)N3N=CC[C@H]3c3cc(F)cc(C#N)c3)C2)n1` [Compound 3, (S)-3-(1-(3-((2-(3,5-dimethylisoxazol-4-yl)-5-fluoropyrimidin-4-yl)oxy)azetidine-1-carbonyl)-4,5-dihydro-1H-pyrazol-5-yl)-5-fluorobenzonitrile], the EC50 fell in the range of 0.1 to 100 nM.

In the case of `Cn1ncc(C#N)c1-c1csc(OC2CN(C(=O)N3N=CC[C@H]3c3cc(F)cc(F)c3)C2)n1` [Compound 150, (S)-5-(2-((1-(5-(3,5-difluorophenyl)-4,5-dihydro-1H-pyrazole-1-carbonyl)azetidin-3-yl)oxy)thiazol-4-yl)-1-methyl-1H-pyrazole-4-carbonitrile], the EC50 lay within 0.1 to 100 nM.

For `Cc1nc(C#N)c(C)n1-c1cc(OC2CN(C(=O)N3N=CC[C@H]3c3cncc(F)c3)C2)c(F)cn1` [Compound 68, (S)-1-(5-fluoro-4-((1-(5-(5-fluoropyridin-3-yl)-4,5-dihydro-1H-pyrazole-1-carbonyl)azetidin-3-yl)oxy)pyridin-2-yl)-2,5-dimethyl-1H-imidazole-4-carbonitrile], the EC50 was in the range of 100 to 1000 nM.

`Cc1cc(F)cc(C2CC=NN2C(=O)N2CC(Oc3cc(-c4c(C)cnn4C)ncc3F)C2)c1` (stereo not shown) [Compound 130, (3-((2-(1,4-dimethyl-1H-pyrazol-5-yl)-5-fluoropyridin-4-yl)oxy)azetidin-1-yl)(5-(3-fluoro-5-methylphenyl)-4,5-dihydro-1H-pyrazol-1-yl)methanone]: the EC50 was in the range of 0.1 to 100 nM.

`Cc1nn(-c2cc(OC3CN(C(=O)N4N=CC[C@H]4c4cccc(F)c4)C3)c(F)cn2)c(C)c1C(=O)O` [Compound 82, (S)-1-(5-fluoro-4-((1-(5-(3-fluorophenyl)-4,5-dihydro-1H-pyrazole-1-carbonyl)azetidin-3-yl)oxy)pyridin-2-yl)-3,5-dimethyl-1H-pyrazole-4-carb oxylic acid]: the EC50 is 0.1 to 100 nM.

Turning to `Cc1cnn(C)c1-c1nc(OC2CN(C(=O)N3N=CC[C@H]3c3cc(F)cc(F)c3)C2)sc1Cl` [Compound 149, (S)-(3-((5-chloro-4-(1,4-dimethyl-1H-pyrazol-5-yl)thiazol-2-yl)oxy)azetidin-1-yl)(5-(3,5-difluorophenyl)-4,5-dihydro-1H-pyrazol-1-yl)methanone], the EC50 was in the range of 0.1 to 100 nM.
